“Also recorded” adds a separate entry of the source. Read-outs that look alike come from different tables or passages of the source.

For data set [1] the following is noted: cited from earlier work.
A further data set deals with Salmonella Typhimurium. The data set can be described thus: Real time PCR of live, heat-killed or isopropyl alcohol-killed Salmonella Typhimurium after treatment with a DNA-binding chemical. The class given is cell-based. The following applies: for Blocking of amplification of DNA from dead bacteria: dead S. typhimurium; for PCR product from live versus killed Salmonella Typhimurium: Gel Red 3x stock. How it is done:
(§1) Various amounts of Gel Red™ can be added to the isolated microbe. Originally the GelRed™ is available at 10,000× solution in water or 3× staining solution in H2O (working solution). The base for the concentration calculation refers to working solution or 3×. In FIGS. 2-4 various dilutions were reported (1:1, 1:10 and 1:100). “1:1” means where 1.0 μl of commercially available Gel Red™ at 3× is diluted in 1.0 μl diluent (such as water). “1:10” means where 1.0 μl of commercially available Gel Red™ at 3× is diluted in 10.0 μl diluent (such as water). “1:100” means where 1.0 μl of commercially available Gel Red™ at 3× is diluted in 100.0 μl diluent (such as water).
(§2) Bacterial species included in these experiments were E. coli, L. monocytogens, and S. Typhimurium. Fresh culture was suspended in a buffer and placed in three tubes (live bacteria, heat-killed and isopropanol-killed bacteria). The first tube contained live bacteria without treatment, and the second and the third tube were inactivated by heat and isopropanol, respectively. The DNA-intercalating chemicals used in this experiment were PMA, EMA and other DNA-binding chemicals, which were not previously reported. The experiments were performed to study the application of sample modification with DNA-binding chemicals to enable PCR to amplify samples only from viable bacteria. […] The bacterial sample was modified with PMA or combined with high voltage light exposure to assess the combined treatment effect.
A sample containing Salmonella Typhimurium was tested. One sample included live Salmonella Typhimurium. Another sample included heat killed Salmonella Typhimurium and another sample contained isopropyl alcohol killed Salmonella Typhimurium. In FIG. 4, Compound CE stands for Gel Red™. Real time PCR was run on the samples.
In this reaction, the amplification was run using primers that targeted the ycdC gene (which encodes a putative transcriptional repressor protein).

A further data set deals with Escherichia coli 0157:H7. As to the kind of experiment: Real time PCR of live, heat-killed or isopropyl alcohol-killed E. coli after treatment with a DNA-binding chemical. The class given is cell-based. The conditions noted are these: for Blocking of amplification of DNA from dead bacteria: dead E. coli; for Penetration into E. coli and blocking of PCR amplification: recommended concentration; for PCR amplification product from live versus killed E. coli: Gel Red 3x stock. How it is done: as §1, §2
A sample containing E. coli was tested. One sample included live E. coli. Another sample included heat killed E. coli and another sample contained isopropyl alcohol killed E. coli. In FIG. 2, Compound CE stands for Gel Red™. Real time PCR was run on the samples. […] The Gel Red™ was too highly concentrated that it penetrated all of E. coli even in the “live sample. […] The Gel Red™ was too weak to get into the intact cell membrane of the live E. coli.
In this reaction, the amplification was run using primers that targeted the per gene (which encodes perosamine synthetase).

The test system of another data set is bacterial sample. As to the kind of experiment: PMA sample modification combined with high voltage light exposure, PCR. It counts as cell-based.
Description: as §2

In a further data set the test system is Listeria monocytogenes. The data set can be described thus: Real time PCR of live, heat-killed or isopropyl alcohol-killed L. monocytogenes after treatment with a DNA-binding chemical. The class given is cell-based. The conditions noted are these: for Blocking of amplification of DNA from dead bacteria: dead L. monocytogens; for PCR product from live versus killed L. monocytogenes: Gel Red 3x stock. The procedure: as §1, §2
A sample containing L. monocytogenes was tested. One sample included live L. monocytogenes. Another sample included heat killed L. monocytogenes and another sample contained isopropyl alcohol killed L. monocytogenes. In FIG. 3, Compound CE stands for Gel Red™. Real time PCR was run on the samples.
In this reaction, the amplification was run using primers that targeted the Hly 9125 gene (which encodes listeriolysin O protein).

For data set [2] the following is noted: cited from earlier work. The source holds these as a separate data set.
[3] abbreviates: concentrations well above the working concentrations used in gel staining.

As to `CC[N+](C)(CC)CCC[n+]1c(-c2ccccc2)c2cc(N=[N+]=[N-])ccc2c2ccc(N)cc21` [PMA, propidium monoazide], the “Cytotoxicity (Description)” value in data set [1] (Table 1) is “substantially lower”. Besides, the “Blocking of amplification of DNA from dead bacteria” value in the data set with Salmonella Typhimurium, in the data set on Escherichia coli 0157:H7 and in the data set with Listeria monocytogenes was “completely blocks the amplification of DNA from dead; also recorded: can block the amplification of DNA from dead bacteria” each time. Also, the “Penetration into E. coli and blocking of PCR amplification” value in the data set with Escherichia coli 0157:H7 was “penetrates only live E. coli”. Moreover, the “Effect of PMA combined with light exposure compared with PMA only” value in the data set with bacterial sample is reported as “not much different from using only PMA”.

As for `Nc1ccc2c(c1)c(-c1ccccc1)[n+](CCCCCC(=O)NCCCOCCOCCOCCCNC(=O)CCCCC[n+]1c(-c3ccccc3)c3cc(N)ccc3c3ccc(N)cc31)c1cc(N)ccc21.[I-].[I-]` [Gel Red™, 5, 5′-(6, 22-dioxo-11, 14, 17-trioxa-7, 21-diazaheptacosane-1, 27-diyl)bis(3,8-diamino-6-phenylphenanthridin-5-ium) iodide], in data set [1] (Table 1), the “Cytotoxicity (Description)” value is on record as “noncytotoxic”. The Cytotoxicity entry in data set [1] (setting [3]) was “noncytotoxic”. Further, the Hazard result in data set [1] (setting [3]) was “nonhazardous”. For the same molecule, the Mutagenicity result in data set [1] (setting [3]) is “nonmutagenic”. In addition, the “PCR product from live versus killed Salmonella Typhimurium” value in the data set on Salmonella Typhimurium (dilution 1:1) is given as “no PCR products”; in the data set on Salmonella Typhimurium (dilution 1:10), “no PCR products”; in the data set with Salmonella Typhimurium (dilution 1:100), “signal from live but not from killed samples”. The “PCR amplification product from live versus killed E. coli” value is recorded as “no PCR products even in the sample containing the live bacteria” in the data set on Escherichia coli 0157:H7 (dilution 1:1); “signal from live but not from killed samples” with Escherichia coli 0157:H7 (dilution 1:10); “amplification products in all samples, including the killed bacteria samples” in the data set on Escherichia coli 0157:H7 (dilution 1:100). Further, the “Stability under normal light” value in data set [2] (Table 1, normal light) is given as “light (photostable)”. Further, the Stability result in data set [2] (Table 1) is on record as “stable”; in data set [2] (general statement), “extremely stable”. Moreover, the entries for the “PCR product from live versus killed L. monocytogenes” value in the data set on Listeria monocytogenes (dilution 1:1), in the data set on Listeria monocytogenes (dilution 1:10) and in the data set with Listeria monocytogenes (dilution 1:100) were “no PCR products”, “signal from live but not from killed samples” and “signal from live but not from killed samples”, respectively.

Consider ethidium monoazide bromide [EMA], for which the Harmfulness entry in data set [1] (Table 1) is recorded as “Potentially harmful”. The “Blocking of amplification of DNA from dead bacteria” value with Salmonella Typhimurium, with Escherichia coli 0157:H7 and in the data set with Listeria monocytogenes was “can block the amplification of DNA from dead bacteria” in each case. Further, in the data set with Escherichia coli 0157:H7, the “Penetration into E. coli and blocking of PCR amplification” value is “penetrates only live E. coli”. The Solubility result in data set [2] (Table 1) is “Soluble in DMF or EtOH”.
